The numbers were not newly measured in article PMC7238120, “Strong and Selective Inhibitory Effects of the Biflavonoid Selamariscina A against CYP2C8 and CYP2C9 Enzyme Activities in Human Liver Microsomes” (Pharmaceutics, 2020), which cites them from elsewhere.

Where two headings read alike, the source gives them in different places.

Series [1] deals with T1, CYP2C8 (Homo sapiens, UniProt P10632).
T1 sequence (P10632 1-490): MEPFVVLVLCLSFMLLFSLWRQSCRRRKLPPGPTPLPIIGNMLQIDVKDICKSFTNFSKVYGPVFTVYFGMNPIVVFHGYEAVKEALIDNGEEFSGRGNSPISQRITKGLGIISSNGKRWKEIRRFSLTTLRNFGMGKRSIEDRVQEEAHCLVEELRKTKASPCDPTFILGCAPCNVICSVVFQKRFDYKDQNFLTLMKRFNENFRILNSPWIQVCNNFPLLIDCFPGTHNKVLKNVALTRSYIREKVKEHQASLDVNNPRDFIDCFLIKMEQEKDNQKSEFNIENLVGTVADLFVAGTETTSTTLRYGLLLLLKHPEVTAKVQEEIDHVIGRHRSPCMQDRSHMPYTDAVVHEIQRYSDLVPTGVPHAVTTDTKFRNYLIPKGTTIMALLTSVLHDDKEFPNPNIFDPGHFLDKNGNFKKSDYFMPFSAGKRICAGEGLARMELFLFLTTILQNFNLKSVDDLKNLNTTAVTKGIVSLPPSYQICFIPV
The note with it: cited from earlier work.

In series [2] the target is CYP2C9 (Homo sapiens, UniProt P11712). The note with it: read-out: Ki, CYP2C9, known inhibitor; cited from earlier work.
Chain of CYP2C9 (P11712 whole entry): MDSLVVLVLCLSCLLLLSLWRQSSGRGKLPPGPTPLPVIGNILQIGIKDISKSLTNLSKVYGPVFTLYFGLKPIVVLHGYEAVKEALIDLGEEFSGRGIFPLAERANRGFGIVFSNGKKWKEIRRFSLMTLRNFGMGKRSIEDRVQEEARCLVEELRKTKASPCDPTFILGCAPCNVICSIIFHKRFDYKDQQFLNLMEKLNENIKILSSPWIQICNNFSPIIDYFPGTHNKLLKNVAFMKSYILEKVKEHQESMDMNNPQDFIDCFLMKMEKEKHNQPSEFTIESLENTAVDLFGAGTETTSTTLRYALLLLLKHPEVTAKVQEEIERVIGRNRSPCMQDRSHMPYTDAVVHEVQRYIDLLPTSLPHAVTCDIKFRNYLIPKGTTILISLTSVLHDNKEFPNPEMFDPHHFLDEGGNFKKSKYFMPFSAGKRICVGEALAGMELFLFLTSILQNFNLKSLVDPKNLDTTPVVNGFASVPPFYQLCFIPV
Series [3] deals with CYP3A4. The arrangement: method as in PMID 1602384. The note with it: HLMs; cited from earlier work.
The target in series [4] is T2, CYP1A2 (Homo sapiens, UniProt P05177).
T2 construct: incubation mixtures containing pooled human liver microsomes (HLMs, XTreme 200, XenoTech); tissue XenoTech XTreme 200; host or cells: pooled human liver microsomes
T2 sequence (P05177 1-516): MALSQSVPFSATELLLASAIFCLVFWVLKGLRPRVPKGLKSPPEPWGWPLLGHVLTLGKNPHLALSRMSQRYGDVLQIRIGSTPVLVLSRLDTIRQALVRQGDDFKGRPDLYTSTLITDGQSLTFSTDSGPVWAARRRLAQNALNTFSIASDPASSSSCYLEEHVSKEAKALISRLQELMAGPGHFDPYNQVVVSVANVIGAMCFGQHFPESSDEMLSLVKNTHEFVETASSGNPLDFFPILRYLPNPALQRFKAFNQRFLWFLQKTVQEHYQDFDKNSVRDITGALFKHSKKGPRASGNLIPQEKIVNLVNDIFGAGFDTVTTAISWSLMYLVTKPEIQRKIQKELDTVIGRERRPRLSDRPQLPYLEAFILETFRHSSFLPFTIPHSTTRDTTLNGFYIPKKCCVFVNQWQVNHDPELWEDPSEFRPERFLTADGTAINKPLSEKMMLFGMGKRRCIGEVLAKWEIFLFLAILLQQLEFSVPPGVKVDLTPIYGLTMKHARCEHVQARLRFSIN
The arrangement: method as in PMID 7483658. The note with it: human liver microsomes; read-out: Ki, CYP1A2, competitive inhibition; cited from earlier work. In general terms: Liver microsomes are vesicles of endoplasmic reticulum, rich in cytochrome P450 enzymes.

The target in series [5] is T3, UGT1A1 (Homo sapiens, UniProt P22309).
T3 sequence (P22309 26-533): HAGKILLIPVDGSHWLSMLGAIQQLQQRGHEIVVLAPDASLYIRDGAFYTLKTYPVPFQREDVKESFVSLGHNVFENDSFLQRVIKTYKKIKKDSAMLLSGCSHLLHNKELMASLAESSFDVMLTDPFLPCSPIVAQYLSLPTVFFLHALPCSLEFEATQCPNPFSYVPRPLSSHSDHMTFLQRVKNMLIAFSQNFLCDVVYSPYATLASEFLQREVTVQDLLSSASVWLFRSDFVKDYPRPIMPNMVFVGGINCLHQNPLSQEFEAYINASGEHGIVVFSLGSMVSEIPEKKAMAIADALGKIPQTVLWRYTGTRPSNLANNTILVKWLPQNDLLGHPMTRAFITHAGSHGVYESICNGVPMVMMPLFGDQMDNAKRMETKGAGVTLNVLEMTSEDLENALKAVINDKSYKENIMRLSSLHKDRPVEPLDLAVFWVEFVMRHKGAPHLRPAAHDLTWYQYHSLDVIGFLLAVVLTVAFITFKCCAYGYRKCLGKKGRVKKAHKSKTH
Also on record: method as in PMID 12386134. The settings on record: read-out: IC50, UGT1A1-mediated estradiol glucuronidation; cited from earlier work.

Setting [6] is: read-out: Ki, CYP2C8, known inhibitor.

Regarding `CNC(=O)c1ccccc1Sc1ccc2c(/C=C/c3ccccn3)n[nH]c2c1` [axitinib], the Ki (as a rule, a measure of affinity in units of concentration, obtained from inhibition or displacement) in series [1] (setting [6]) is 170 nM.
Turning to `CCOC(=O)C1=C(C)NC(C)=C(C(=O)OC)C1c1cccc(Cl)c1Cl` (stereo not shown) [felodipine], the 50% inhibitory concentration (IC50) (in general, the midpoint of a concentration-inhibition curve) in series [1] (read-out: IC50, CYP2C8, known inhibitor) was 1200 nM.
For the compound `CNCCC(Oc1ccc(C(F)(F)F)cc1)c1ccccc1` (stereo not shown) [fluoxetine], the Ki in series [2] is 19000 to 87000 nM.
With `COCCCC/C(=N\OCCN)c1ccc(C(F)(F)F)cc1` [fluvoxamine], in series [2], the inhibition constant Ki is 630 to 16000 nM.
For the compound `O=c1c(O)c(-c2ccc(O)cc2)oc2cc(O)cc(O)c12` [kaempferol], the “Concentrations inhibiting metabolism of nifedipine and felodipine by CYP3A4” value in series [3] was more than 10 µM.
As to `Cc1cn(-c2cc(NC(=O)c3ccc(C)c(Nc4nccc(-c5cccnc5)n4)c3)cc(C(F)(F)F)c2)cn1` [nilotinib], the Ki in series [1] (setting [6]) is 100 nM.
For the compound `O=c1c(O)c(-c2ccc(O)c(O)c2)oc2cc(O)cc(O)c12` [quercetin], the “Concentrations inhibiting metabolism of nifedipine and felodipine by CYP3A4” value in series [3] is more than 10 µM.
On to `COc1ccc(-c2cc(=O)c3c(OC)c(OC)c(OC)c(OC)c3o2)cc1` [tangeretin], for which, in series [4], the Ki was 68 nM. In addition, the IC50 in series [5] was 1000 nM.
In the case of `COc1cc(C(=O)NS(=O)(=O)c2ccccc2C)ccc1Cc1cn(C)c2ccc(NC(=O)OC3CCCC3)cc12` [zafirlukast], the Ki in series [1] (read-out: Ki, CYP2C8, well-known inhibitor) was 390 nM.
